Data on 9 molecules can be found in PubChem BioAssay (NCI).

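Growth conditions: 96-well plates. Treatment: test compound, 48 hours, 5 concentrations. Analysis: linear interpolation between bracketing concentrations; unreached endpoints set to highest concentration. Definition used: TGI = concentration required for complete inhibition of growth.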 Bounds are passed on as bounds.

Assay in all cases: growth of human tumour cells (NCI), 48 h
Experiment [1] relates to UACC-62 melanoma.
In experiment [2] the test system is ACHN renal.
Experiment [3] deals with HOP-92 NSCLC.
The test system of experiment [4] is MALME-3M melanoma.
Experiment [5] concerns SNB-75 CNS.
Experiment [6] has as its system HT29 colon.
The subject of experiment [7] is M14 melanoma.
In experiment [8] the test system is OVCAR-3 ovarian.
Experiment [9] relates to K-562 leukemia.
The test system of experiment [10] is MDA-N.
For experiment [11], the system named is LOX IMVI melanoma.
Experiment [12] deals with NCI-H23 lung.
Experiment [13] concerns MDA-MB-435.
Experiment [14] has as its system COLO 205 colon.
Experiment [15] relates to MOLT-4 leukemia.
The test system of experiment [16] is SR leukemia.
For experiment [17], the system named is HOP-62 NSCLC.
For experiment [18], the system named is U251 CNS.
Experiment [19] concerns UACC-257 melanoma.

On to `COC1=NC(NC2OCC(O)C(O)C2O)=C(NC(C)=O)CN1C` (stereo not drawn), for which the TGI in experiment [1], in experiment [2], in [3], in experiment [4], in [5] and in experiment [6] was more than 100 µM in each case. Moreover, the TGI in experiment [7], in experiment [8], in [9], in [10], in experiment [11] and in [12] was more than 100 µM each time. Besides, the TGI in [13], in [14] and in experiment [15] was more than 100 µM each time.
As to `O=C1c2ccccc2-c2nc3ccc(O)cc3n21`, the TGI in experiment [1], in experiment [2], in experiment [3], in [16], in [4] and in [5] was more than 100 µM throughout. Also, the TGI in [17], in experiment [6], in [18], in [7], in experiment [8] and in experiment [9] was more than 100 µM each time. Also, the TGI in experiment [10], in [12], in experiment [19], in experiment [14] and in [15] was more than 100 µM each time.
Consider `C=C(C)CC1=C(OCC)C(OC)(OCC)C1=O` (stereo not drawn), for which the TGI in experiment [1], in experiment [2], in experiment [3], in [5], in experiment [17] and in [6] was more than 100 µM in each case. For the same molecule, the TGI in [18], in experiment [7], in [8], in experiment [10], in experiment [11] and in [12] was more than 100 µM throughout. In addition, the TGI in experiment [19], in [13], in experiment [14] and in [15] was more than 100 µM each time.
As for `OC(c1cccnc1)C(F)(F)c1nc2ccccc2o1` (stereo not drawn), the TGI in experiment [1], in experiment [2], in experiment [3], in experiment [16], in experiment [5] and in experiment [17] was more than 100 µM throughout. Moreover, the TGI in experiment [6], in [18], in [9], in [11], in experiment [12] and in experiment [19] was more than 100 µM throughout. Further, the TGI in experiment [13], in experiment [14] and in [15] was more than 100 µM each time.
Take `O=CN1CCN(C(=O)c2cc(Cl)cc(Cl)c2)C1=S`: the TGI in [1] is 31.2 µM; in [2], 31.7 µM; in experiment [3], 31.9 µM; in experiment [4] it was 20.7 µM; in experiment [5], 27 µM; in experiment [17], 29.7 µM. Also, the TGI in experiment [6] stood at 54.5 µM; in experiment [18], 36 µM; in [7] it was 29.2 µM; in experiment [8], 27.9 µM; in [9], 97.5 µM; in experiment [10] it was 35.4 µM. The TGI is 22.3 µM in experiment [11]; 32.5 µM in experiment [12]; 32.3 µM in experiment [19]; 28.1 µM in experiment [13]; 33.8 µM in experiment [14]; 42.7 µM in experiment [15].
As for `NNC(=O)c1ccccc1Nc1ccccc1C(=O)NN`, the TGI in experiment [1], in experiment [2], in experiment [4], in [5], in experiment [17] and in experiment [6] was more than 100 µM in each case. Moreover, the TGI in experiment [18], in experiment [7], in experiment [8], in [9], in [10] and in [11] was more than 100 µM each time. Further, the TGI in [12], in experiment [19], in experiment [13], in experiment [14] and in experiment [15] was more than 100 µM each time.
Take `COC1O[C@@H]2CCN3C(=O)[C@@H](OC(=O)c4ccc([N+](=O)[O-])cc4)[C@H]1C23` (stereo partly drawn): the TGI in experiment [1], in [2], in [3], in experiment [16], in experiment [5] and in experiment [17] was more than 100 µM each time. The TGI in experiment [6], in experiment [18], in experiment [7], in experiment [8], in experiment [9] and in experiment [11] was more than 100 µM each time. For the same molecule, the TGI in [12], in experiment [19], in experiment [13], in [14] and in experiment [15] was more than 100 µM in each case.
As to `COc1ccc(-c2c(C#N)c(-c3ccc(C)cc3)n(NS(=O)(=O)c3ccccc3)c(=O)c2C#N)cc1`, the TGI in experiment [1], in experiment [2], in [3], in [4], in experiment [5] and in experiment [17] was more than 100 µM throughout. Also, the TGI in experiment [6], in [18], in experiment [7], in experiment [8], in experiment [9] and in experiment [10] was more than 100 µM in each case. In addition, the TGI is more than 100 µM in [11]; more than 100 µM in experiment [19]; more than 100 µM in experiment [13]; more than 100 µM in experiment [14]; 60.4 µM in experiment [15].
Regarding `O=S(=O)(/N=C(\NO)Nc1ccc(Cl)cc1)c1ccc(S(=O)(=O)c2ccccc2)s1`, the TGI in experiment [1] worked out at 33.7 µM; in [2] it was 89.3 µM; in experiment [3], 31.3 µM; in [4] it was 41.9 µM; in [17] it was 82.8 µM; in [6], 57.7 µM. For the same molecule, the TGI in [18] was 60.3 µM; in experiment [7] it was 37.4 µM; in experiment [8], 55.9 µM; in experiment [9] it was 40.3 µM; in experiment [11], 29.3 µM; in [12], 52.1 µM. For the same molecule, the TGI in experiment [19] was determined as 41 µM; in experiment [13] it was 37.3 µM; in experiment [14] it was 34.6 µM; in [15], 35.9 µM.
